System: sheep PDCs
Test: ALP activity of predifferentiated chondrocytes cultured on CPP substrates

Compound: N[C@@H](Cc1cc(I)c(Oc2ccc(O)c(I)c2)c(I)c1)C(=O)O [T3, triiodothyronine]
- ALP activity (3 nM T3, absence of dexamethasone, 1 week on CPP substrates): maximized
- ALP activity level over 2 week culture (continuous 3 nM T3 treatment, maintained up to day 14): significantly increased by day 4

Reference: patent US10195044B2, “Intervertebral disc implant” (Sinai Health System, priority 2013, dated 2019)
